Source: publication PMC6017792, “Hydrazone Derivatives Enhance Antileishmanial Activity of Thiochroman-4-ones” (Molecules : A Journal of Synthetic Chemistry and Natural …, 2017)

Key:
[1] = tested on: intracellular amastigotes of L. panamensis; test: in vitro antileishmanial activity on intracellular amastigotes (EGFP strain in U-937 cells, flow cytometry); type: cell-based, Leishmania panamensis; conditions: for IS (Index of Selectivity = LC50/EC50): LC50 (U-937) / EC50 (L. panamensis amastigotes); for EC50: intracellular amastigotes of L. panamensis (MHOM/CO/87/UA140-EGFP) in U-937 cells, 72 h, mean ± SD; for antileishmanial activity (in words): 10-50 µM moderately active, > 50 µM low activity
Description: Antileishmanial activity of compounds was determined according to the ability to reduce the infection by L. panamensis parasites, a Leishmania species that is highly prevalent in the Central America and Colombia as causative agent of C.L. For this, the antileishmanial activity was tested on intracellular amastigotes of L. panamensis transfected with the green fluorescent protein gene (MHOM/CO/87/UA140-EGFP strain). […] Plates were incubated at 34 °C and 5% CO2 for 3 h and then cells were washed twice with PBS to eliminate not internalized parasites. […] Cells were washed two times employing PBS, as previously, and after the last wash, the supernatant was discarded and cells were suspended in 500 μL of PBS.
Cells were analyzed by flow cytometry employing a flow cytometer (Cytomics FC 500MPL, Beckman Coulter. Pasadena, CA, USA) reading at 488 nm (exciting) and 525 nm (emitting) over an argon laser and counting 10,000 events. Infected cells were determined according the events for green fluorescence (parasites). All determinations for each compound and standard drug were carried out by triplicate, in two experiments. Infected cells exposed to amphotericin B were used as control for antileishmanial activity (positive control) while infected cells incubated in absence of any compound or drug were used as control for infection (negative control). Nonspecific fluorescence was corrected by subtracting fluorescence of unstained cells. Determinations were done by triplicate in at least two independent experiments.
Antileishmanial activity was determined according reduction of percentage of fluorescent parasites determined according to the median fluorescence intensity (MFI), obtained for each experimental condition by cytometry. The parasite values for each concentration of compound were calculated by Equation (3), where the % of parasites in the control well, corresponds to 100% of parasites:% parasites = (MFI exposed parasites/MFI unexposed parasites) × 100(3)
Results of antileishmanial activities were expressed as the EC50 calculated by Probit method. The compound were classified according to EC50 values using a scale defined by us, based on the hit criteria proposed by Katsuno et al.[25].

[2] = in vitro; conditions: human
Description: (§1) Cells exposed to compounds or standard drug were incubated 72 h at 37 °C and 5% of CO2. Cytotoxic activity of each compound was determined according to the effect on the cell viability by the MTT microenzymatic method in which 3-(4,5-dimethylthiazol-2-yl)-2,5-diphenyltetrazolium bromide is reduced to a purple product named formazan by mitochondrial enzyme succinate dehydrogenase. Thus, 10 μL/well of MTT solution (5 mg/mL) were added to each well of exposed and unexposed cells, and plates were incubated at 37 °C, 5% CO2 during 3 h. The reaction was stopped by adding 100 μL/well of isopropanol with 50% and 10% of sodium dodecyl sulfate. The concentration of formazan was determined spectrophotometrically at 570 nm (Varioskan Flash Multimode Reader, Thermo Scientific, Waltham, MA, USA) and intensity of color (absorbance) was registered as O.D. Cells exposed to amphotericin B were used as control for toxicity (positive control) while cell incubated in absence of any compound or drug were used as control for viability (negative control). Non-specific absorbance was corrected by subtracting absorbance (O.D.) of the blank. Determinations were done by triplicate in at least two independent experiments.
(§2) Cytotoxicity was determined according to viability and mortality percentages obtained for each experimental condition (synthetized compounds, amphotericin B and culture medium). […] Initially, viability percentages were calculated by Equation (1), where the O.D. of control well, corresponds to 100% of viability:% viability = (O.D. exposed cells/O.D. unexposed cells) × 100(1)

[3] = tested on: human monocytes (U-937 ATCC CRL-1593.2); test: in vitro; conditions: for CC50: read-out: LC50, U-937 cells, 72 h, MTT, mean ± SD
Description: as §1, §2

SMILES: O=C(N/N=C1\CCSc2ccccc21)c1ccncc1 [Compound 7, (E)-N′-(Thiochroman-4-ylidene)isonicotinohydrazide]
- IS (Index of Selectivity = LC50/EC50) [1]: >12.4
- EC50 ([1]; Leishmania panamensis): 56.8 ± 4.54 µM
- CC50 at 72 h [2]: 706 µM

SMILES: NC(=S)N/N=C1\CC(c2ccccc2)Sc2ccccc21 (stereo not shown) [Compound 20, (E)-2-(2-Phenylthiochroman-4-ylidene)hydrazinecarbothioamide]
- IS (Index of Selectivity = LC50/EC50) [1]: 9.8
- EC50 ([1]; Leishmania panamensis): 5.1 ± 1.3 µM
- CC50 at 72 h [2]: 50.1 ± 4.1 µM

SMILES: CC1CC(=O)c2cc(F)ccc2S1 (stereo not shown) [Compound 4, 6-Fluoro-2-methylthiochroman-4-one]
- IS (Index of Selectivity = LC50/EC50) [1]: 1.4
- EC50 ([1]; Leishmania panamensis): 422 ± 9.2 µM
- CC50 at 72 h [2]: 579 ± 59.1 µM

SMILES: CC1CC(=O)c2ccccc2S1 (stereo not shown) [Compound 3, 2-Methylthiochroman-4-one]
- IS (Index of Selectivity = LC50/EC50) [1]: 1.4
- EC50 ([1]; Leishmania panamensis): 445 ± 7.3 µM
- CC50 at 72 h [2]: 604 ± 86.4 µM

SMILES: CC1C/C(=N\NC(=O)c2ccncc2)c2cc(F)ccc2S1 (stereo not shown) [Compound 17, (E)-N′-(6-Fluoro-2-methylthiochroman-4-ylidene)isonicotinohydrazide]
- IS (Index of Selectivity = LC50/EC50) [1]: 2.1
- EC50 ([1]; Leishmania panamensis): 98.9 ± 19.3 µM
- CC50 at 72 h [2]: 203 ± 25.4 µM

SMILES: CC1C/C(=N\NC(=O)c2ccccc2)c2ccccc2S1 (stereo not shown) [Compound 13, (E)-N′-(2-Methylthiochroman-4-ylidene)benzohydrazide]
- IS (Index of Selectivity = LC50/EC50) [1]: 3.9
- EC50 ([1]; Leishmania panamensis): 38.1 ± 16.2 µM
- CC50 at 72 h [2]: 150 ± 24.3 µM

SMILES: Nc1ccc(C(=O)N/N=C2\CCSc3ccc(F)cc32)cc1 [Compound 12, (E)-4-Amino-N′-(6-fluorothiochroman-4-ylidene)benzohydrazide]
- IS (Index of Selectivity = LC50/EC50) [1]: >6.6
- EC50 ([1]; Leishmania panamensis): 95.5 ± 6.9 µM
- CC50 at 72 h [2]: > 634 µM

SMILES: NC(=O)N/N=C1\CC(c2ccccc2)Sc2ccccc21 (stereo not shown) [Compound 19, (E)-2-(2-Phenylthiochroman-4-ylidene)hydrazinecarboxamide]
- IS (Index of Selectivity = LC50/EC50) [1]: 18.6
- EC50 ([1]; Leishmania panamensis): 5.4 ± 1 µM
- CC50 at 72 h [2]: 100 ± 19.8 µM

SMILES: O=C1CCSc2ccccc21 [Compound 1, thiocroman-4-one]
- EC50 [1]: 344 ± 75.6 µM
- CC50 [3]: > 1000 µM

SMILES: NNC(N)=S [thiosemicarbazide, reference compound]
- antileishmanial activity (in words) ([1]; […]): inactive
- EC50 [1]: > 267 µM
- CC50 [3]: > 1000 µM

SMILES: CC1C/C(=N\NC(=O)c2ccc(N)cc2)c2cc(F)ccc2S1 (stereo not shown) [Compound 18, (E)-4-Amino-N′-(6-fluoro-2-methylthiochroman-4-ylidene)benzohydrazide]
- IS (Index of Selectivity = LC50/EC50) [1]: 0.2
- EC50 ([1]; Leishmania panamensis): 161 ± 2.4 µM
- CC50 at 72 h [2]: 31 ± 7 µM

SMILES: O=C(N/N=C1\CCSc2ccccc21)c1ccccc1 [Compound 6, (E)-N′-(Thiochroman-4-ylidene)benzohydrazide]
- IS (Index of Selectivity = LC50/EC50) [1]: 3.9
- EC50 ([1]; Leishmania panamensis): 63.7 ± 9.2 µM
- CC50 at 72 h [2]: 248 ± 49.6 µM

SMILES: CC1C/C(=N\NC(=O)c2ccc(N)cc2)c2ccccc2S1 (stereo not shown) [Compound 15, (E)-4-Amino-N′-(2-methylthiochroman-4-ylidene)benzohydrazide]
- IS (Index of Selectivity = LC50/EC50) [1]: 1.1
- EC50 ([1]; Leishmania panamensis): 91.8 ± 13.5 µM
- CC50 at 72 h [2]: 102 ± 15.1 µM

SMILES: O=C(N/N=C1\CCSc2ccc(F)cc21)c1ccncc1 [Compound 11, (E)-N′-(6-Fluorothiochroman-4-ylidene)isonicotinohydrazide]
- IS (Index of Selectivity = LC50/EC50) [1]: >16.6
- EC50 ([1]; Leishmania panamensis): 39.9 ± 5.3 µM
- CC50 at 72 h [2]: > 664 µM

SMILES: O=C(N/N=C1\CC(c2ccccc2)Sc2ccccc21)c1ccccc1 (stereo not shown) [Compound 21, (E)-N′-(2-Phenylthiochroman-4-ylidene)benzohydrazide]
- EC50 ([1]; Leishmania panamensis): 28.5 ± 2.8 µM
- CC50 at 72 h [2]: 529 ± 7 µM

SMILES: O=C1CC(c2ccccc2)Sc2ccccc21 (stereo not shown) [Compound 5, 2-Phenylthiochroman-4-one]
- IS (Index of Selectivity = LC50/EC50) [1]: >0.9
- EC50 ([1]; Leishmania panamensis): 44.1 ± 0.9 µM
- antileishmanial activity (in words) ([1]; scale b56: EC50 < 10 µM highly active): moderate antileishmanial activity
- cytotoxic activity (in words) ([3]; scale b53: LC50 < 100 µM high toxicity, 100-200 µM moderate, > 200 µM potential nontoxicity): high cytotoxic activity
- CC50 at 72 h [2]: > 41.6 µM

SMILES: CC1C/C(=N\NC(=O)c2ccncc2)c2ccccc2S1 (stereo not shown) [Compound 14, (E)-N′-(2-Methylthiochroman-4-ylidene)isonicotinohydrazide]
- IS (Index of Selectivity = LC50/EC50) [1]: >11.9
- EC50 ([1]; Leishmania panamensis): 56.6 ± 0.7 µM
- CC50 at 72 h [2]: > 672 µM

SMILES: O=C(N/N=C1\CC(c2ccccc2)Sc2ccccc21)c1ccncc1 (stereo not shown) [Compound 22, (E)-N′-(2-Phenylthiochroman-4-ylidene)isonicotinohydrazide]
- IS (Index of Selectivity = LC50/EC50) [1]: >33.9
- EC50 ([1]; Leishmania panamensis): 16.4 ± 3.6 µM
- CC50 at 72 h [2]: > 556 µM

SMILES: O=C1CCSc2ccc(F)cc21 [Compound 2, 6-Fluorothiochroman-4-one]
- IS (Index of Selectivity = LC50/EC50) [1]: <6.5
- EC50 ([1]; Leishmania panamensis): > 110 µM
- CC50 at 72 h [2]: > 706 µM

SMILES: O=C(N/N=C1\CCSc2ccc(F)cc21)c1ccccc1 [Compound 10, (E)-N′-(6-Fluorothiochroman-4-ylidene)benzohydrazide]
- IS (Index of Selectivity = LC50/EC50) [1]: >17.6
- EC50 ([1]; Leishmania panamensis): 37.3 ± 3.3 µM
- CC50 at 72 h [2]: > 666 µM

SMILES: CC1C/C(=N\NC(=O)c2ccccc2)c2cc(F)ccc2S1 (stereo not shown) [Compound 16, (E)-N′-(6-Fluoro-2-methylthiochroman-4-ylidene)benzohydrazide]
- EC50 ([1]; Leishmania panamensis): 43.9 ± 4.5 µM
- CC50 at 72 h [2]: > 636 µM

SMILES: C[C@@H]1[C@H](O)[C@@H](C)/C=C/C=C/C=C/C=C/C=C/C=C/C=C/[C@H](O[C@@H]2O[C@H](C)[C@@H](O)[C@H](N)[C@@H]2O)C[C@@H]2O[C@](O)(C[C@@H](O)C[C@@H](O)[C@H](O)CC[C@@H](O)C[C@@H](O)CC(=O)O[C@H]1C)C[C@H](O)[C@H]2C(=O)O [Amphotericin B, reference compound]
- EC50 ([1]; Leishmania panamensis): 0.32 µM
- CC50 at 72 h [2]: 39.6 ± 8.7 µM

SMILES: NC(=O)N/N=C1\CCSc2ccccc21 [Compound 8, (E)-2-(Thiochroman-4-ylidene)hydrazinecarboxamide]
- IS (Index of Selectivity = LC50/EC50) [1]: 7.0
- EC50 ([1]; Leishmania panamensis): 91.5 ± 33.4 µM
- CC50 at 72 h [2]: 637 ± 37.9 µM
